Reference: patent publication US20250129069A1, “TRIAZOLO WRN INHIBITORS” (Nimbus Wadjet, Inc., priority 2023, published 2025)
Read-outs that look alike come from different tables or passages of the source.

Experiments:
[1] = biological target: human Werner helicase (WRN, amino acids 517-1235 with L1074F point mutation) (Homo sapiens (Human), UniProt Q14191, L1074F); test: WRN (BV08) ADP-Glo assay; format: biochemical; settings: human WRN (aa 517-1235, L1074F), read-out: ADP-Glo_hWRN_IC50
Excerpt: Bovine skin gelatin (BSG), dimethyl sulfoxide (DMSO), Pluronic F-127 and tris(2-carboxyethyl)phosphine hydrochloride solution (TCEP) were purchased from Sigma-Aldrich (St. Louis, MO) at the highest level of purity possible. Bicine buffer solution was purchased from Alfa Aesar (Tewksbury, MA) and compound NSC-617145 was purchased from Tocris (Minneapolis, MN). DNA duplex was synthesized at BGI (Shenzhen, China) and was composed of strand 1 with the sequence 5′-[…]-3′ (SEQ ID NO.: 1) and strand 2 with the sequence 5′-[…]-3′ (SEQ ID NO.: 2). DNA strands were annealed by heating to 95° C. for 5 minutes followed by slow cooling to room temperature. Compounds in 100% DMSO (0.1 μl) were spotted into a 384-well white polystyrene Optiplate-384 (Perkin Elmer; Waltham, MA) assay plate using a LabCyte Echo 550 (Agilent; Santa Clara, CA). DMSO (0.1 μl) was added to columns 12, rows A-H and column 24, rows I-P for the maximum signal control. Compound NSC-617145 (0.1 μl) was added to columns 12, rows I-P and 24, rows A-H for the minimum signal control (100% inhibition). Compounds/DMSO were preincubated for 15 minutes at 25° C. with 5 μl 2×WRN (BV08), prepared as described below, in assay buffer containing 20 mM Bicine (pH=7.5), 1 mM MgCl2, 10 mM KCl, 0.1% Pluronic F-127, 0.005% BSG, 1 mM TCEP. The reaction was initiated by the addition of 5 μl 2× substrate mixture in assay buffer and incubated for 60 minutes at 25° C. The final concentrations of the assay components were 0.15 nM WRN, 5 μM ATP, and 0.1 nM DNA duplex. The final DMSO concentration was 1% and the reference compound concentration (NSC-617145) used for the minimal signal control was 20 μM. The reaction was stopped by the addition of the ADP-Glo Kit components (Promega; Madison, WI) as directed and the relative luminescence units (RLU) were read on an Envision 2104 (Perkin Elmer; Waltham, MA).
% inhibition calculation:
% INH=(RLU MAX−RLU sample)/(RLU MAX−RLU MIN))×100
Where RLU=relative luminescence units, sample=signal in sample well, and MIN and MAX are the respective minimum and maximum signal controls. Four-parameter IC50 fit equation:
Y=Bottom+(Top−Bottom)/(1+(IC50/X)^Hill Slope)
Where top and bottom are normally allowed to float but may be fixed at 100 or 0 respectively in a 3-parameter fit. Y is the % inhibition and X is the compound concentration.
Molecular Biology and virus production. The DNA encoding human Werner helicase (Uniprot Q14191, amino acids 517-1235 with L1074F point mutation) was generated with codon-optimization for E. coli expression and subcloned into the pFastBac vector with a TEV cleavable 8×His tag (WRN—BV08). The baculovirus from the expression plasmid WRN—BV08 was generated from transfection and amplification following the manufacturer's instructions.
Sf9 cells grown in SF900II media were infected with 1:200 WRN—BV08 P2 virus and incubated for protein expression for 72 h at 27° C. The WRN protein was purified using the following protocol. The cell pellets were thawed and resuspended in buffer A (50 mM Tris, pH 7.5, 500 mM NaCl, 1 mM TCEP, 10% Glycerol) supplemented with 0.5% CHAPS, 1 mM PMSF, […] Leupeptin, 1 μg/ml Pepstatin, and the Pierce Universal Nuclease and cocktail tablet. Cleared lysates were loaded onto a Ni Sepharose™ excel column and washed with buffer A and bound protein was eluted with buffer A supplemented with 300 mM imidazole. The eluted protein was dialyzed against buffer A and digested by His-tagged TEV (1:5 ratio) overnight at 4° C. ZnCl2 was added into the sample at final 15 μM before loading onto a second Ni Sepharose™ excel column. Untagged WRN protein was eluted from the column with buffer A supplemented with 20 mM imidazole, dialyzed overnight into buffer B (50 mM Tris, pH 7.5, 1 mM TCEP, 10% Glycerol) supplemented with 150 mM NaCl and loaded onto a Heparin column. Proteins were eluted with a step gradient of buffer B supplemented with 150 mM, 200 mM, 300 mM and 500 mM NaCl. […]

[2] = system: p21 induction in HCT 116 cells; test: p21 induction in cells (In-Cell Western, p21/GAPDH ratio); format: cell-based; settings: 24 h compound incubation, read-out: p21_EC50
How it was run: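 EC50 values come from nonlinear fits of percent activation, defined by the 800/700 nm p21-to-GAPDH ratio scaled between DMSO (low) and internal WRN inhibitor (high) controls. In-Cell Western read after 24 h compound exposure of HCT 116 cells at 37° C. Duplicate 11-point series, 2-fold steps, usually starting at 10 μM.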

Sequence of human Werner helicase (WRN, amino acids 517-1235 with L1074F point mutation) (Q14191 other isoform, or with tags, fused parts or gaps L1074F (already in the parent)): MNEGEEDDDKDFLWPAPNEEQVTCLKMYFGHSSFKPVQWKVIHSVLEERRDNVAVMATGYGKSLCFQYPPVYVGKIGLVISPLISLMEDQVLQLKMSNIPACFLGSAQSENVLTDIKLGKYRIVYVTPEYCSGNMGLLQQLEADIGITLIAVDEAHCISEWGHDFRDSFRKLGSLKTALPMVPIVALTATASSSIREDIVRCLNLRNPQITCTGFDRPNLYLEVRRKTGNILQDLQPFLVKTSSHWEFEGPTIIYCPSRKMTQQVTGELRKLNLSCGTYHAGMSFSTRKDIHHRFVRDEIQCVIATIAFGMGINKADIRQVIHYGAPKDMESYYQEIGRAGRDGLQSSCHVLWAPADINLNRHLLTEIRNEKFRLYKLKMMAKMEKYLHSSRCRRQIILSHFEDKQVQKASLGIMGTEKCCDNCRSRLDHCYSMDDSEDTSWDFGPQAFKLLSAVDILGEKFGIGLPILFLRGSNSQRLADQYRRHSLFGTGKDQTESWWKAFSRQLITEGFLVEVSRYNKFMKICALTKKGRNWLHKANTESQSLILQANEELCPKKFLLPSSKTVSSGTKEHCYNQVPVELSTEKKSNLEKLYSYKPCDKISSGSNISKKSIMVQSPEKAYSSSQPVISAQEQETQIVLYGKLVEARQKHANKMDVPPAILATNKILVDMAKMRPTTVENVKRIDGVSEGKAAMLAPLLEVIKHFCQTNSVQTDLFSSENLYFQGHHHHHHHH

IC50 [1] [nM]	EC50 [2] [nM]	EC50 ([2]; Homo sapiens) [nM]	Compound
5 to 50	≤ 500		CCc1c(N2CCN(C(=O)c3c(O)ccc4ncoc34)CC2)c(=O)c2nn(-c3ccnc(OC)c3)nc2n1CC(=O)NC12CC(C(F)(F)F)(C1)C2 [Compound I-3, 2-(5-ethyl-6-(4-(6-hydroxybenzo[d]oxazole-7-carbonyl)piperazin-1-yl)-2-(2-methoxypyridin-4-yl)-7-oxo-2,7-dihydro-4H-[1,2,3]triazolo[4,5-b]pyridin-4-yl)-N-(3-(trifluoromethyl)bicyclo[1.1.1]pentan-1-yl)acetamide]
5 to 50	≤ 500		CCc1c(N2CCN(C(=O)c3c(O)ccc4ncoc34)[C@H]3CC[C@@H]32)c(=O)c2nn(-c3ccnc(OC)c3)nc2n1CC(=O)NC12CC(C(F)(F)F)(C1)C2 [Compound I-4, 2-(5-ethyl-6-((1S,6S)-5-(6-hydroxybenzo[d]oxazole-7-carbonyl)-2,5-diazabicyclo[4.2.0]octan-2-yl)-2-(2-methoxypyridin-4-yl)-7-oxo-2,7-dihydro-4H-[1,2,3]triazolo[4,5-b]pyridin-4-yl)-N-(3-(trifluoromethyl)bicyclo[1.1.1]pentan-1-yl)acetamide]
5 to 50	500 to 2000		CCc1c(N2CCN(C(=O)c3ncnc(C)c3O)CC2)c(=O)c2nn(-c3ccnc(OC)c3)nc2n1CC(=O)NC12CC(C(F)(F)F)(C1)C2 [Compound I-5, 2-(5-ethyl-6-(4-(5-hydroxy-6-methylpyrimidine-4-carbonyl)piperazin-1-yl)-2-(2-methoxypyridin-4-yl)-7-oxo-2,7-dihydro-4H-[1,2,3]triazolo[4,5-b]pyridin-4-yl)-N-(3-(trifluoromethyl)bicyclo[1.1.1]pentan-1-yl)acetamide]
≤ 5		≤ 500	CCc1c(N2CCN(C(=O)c3ncnc(C)c3O)CC2)c(=O)c2nn(-c3ccnc(C)c3)nc2n1CC(=O)Nc1ccc(C(F)(F)F)cc1Cl [Compound I-7, N-(2-chloro-4-(trifluoromethyl)phenyl)-2-(5-ethyl-6-(4-(5-hydroxy-6-methylpyrimidine-4-carbonyl)piperazin-1-yl)-2-(2-methylpyridin-4-yl)-7-oxo-2,7-dihydro-4H-[1,2,3]triazolo[4,5-b]pyridin-4-yl)acetamide]
≤ 5		≤ 500	CCc1c(N2CCN(C(=O)c3ncnc(C)c3O)CC2)c(=O)c2nn(-c3ccn(C4CC4)n3)nc2n1CC(=O)Nc1ccc(C(F)(F)F)cc1Cl [Compound I-8, N-(2-chloro-4-(trifluoromethyl)phenyl)-2-(2-(1-cyclopropyl-1H-pyrazol-3-yl)-5-ethyl-6-(4-(5-hydroxy-6-methylpyrimidine-4-carbonyl)piperazin-1-yl)-7-oxo-2,7-dihydro-4H-[1,2,3]triazolo[4,5-b]pyridin-4-yl)acetamide]
5 to 50		≤ 500	CCc1c(N2CCN(C(=O)c3ncnc(C)c3O)[C@H]3CC[C@@H]32)c(=O)c2nn(-c3ccnc(C)c3)nc2n1CC(=O)Nc1ccc(C(F)(F)F)cc1Cl [Compound I-9, N-(2-chloro-4-(trifluoromethyl)phenyl)-2-(5-ethyl-6-((1S,6S)-5-(5-hydroxy-6-methylpyrimidine-4-carbonyl)-2,5-diazabicyclo[4.2.0]octan-2-yl)-2-(2-methylpyridin-4-yl)-7-oxo-2,7-dihydro-4H-[1,2,3]triazolo[4,5-b]pyridin-4-yl)acetamide]
5 to 50		≤ 500	CCc1c(N2CCN(C(=O)c3ncnc(C)c3O)[C@H]3CC[C@@H]32)c(=O)c2nn(-c3ccnc(OC)c3)nc2n1CC(=O)NC12CC(C3CC3)(C1)C2 [Compound I-10, N-(3-cyclopropylbicyclo[1.1.1]pentan-1-yl)-2-(5-ethyl-6-((1S,6S)-5-(5-hydroxy-6-methylpyrimidine-4-carbonyl)-2,5-diazabicyclo[4.2.0]octan-2-yl)-2-(2-methoxypyridin-4-yl)-7-oxo-2,7-dihydro-4H-[1,2,3]triazolo[4,5-b]pyridin-4-yl)acetamide]
5 to 50		≤ 500	CCc1c(N2CCN(C(=O)c3ncnc(C)c3O)[C@H]3CC[C@@H]32)c(=O)c2nn(-c3ccnc(OC)c3)nc2n1CC(=O)NC12CC(C(F)(F)F)(C1)C2 [Compound I-11, 2-(5-ethyl-6-((1S,6S)-5-(5-hydroxy-6-methylpyrimidine-4-carbonyl)-2,5-diazabicyclo[4.2.0]octan-2-yl)-2-(2-methoxypyridin-4-yl)-7-oxo-2,7-dihydro-4H-[1,2,3]triazolo[4,5-b]pyridin-4-yl)-N-(3-(trifluoromethyl)bicyclo[1.1.1]pentan-1-yl)acetamide]
≤ 5		≤ 500	CCc1c(N2CCN(C(=O)c3ncnc(C)c3O)[C@H]3CC[C@@H]32)c(=O)c2nn(C3=CCOCC3)nc2n1CC(=O)Nc1ccc(C(F)(F)F)cc1F [Compound I-12, 2-(2-(3,6-dihydro-2H-pyran-4-yl)-5-ethyl-6-((1S,6S)-5-(5-hydroxy-6-methylpyrimidine-4-carbonyl)-2,5-diazabicyclo[4.2.0]octan-2-yl)-7-oxo-2,7-dihydro-4H-[1,2,3]triazolo[4,5-b]pyridin-4-yl)-N-(2-fluoro-4-(trifluoromethyl)phenyl)acetamide]
5 to 50		≤ 500	CCc1c(N2CCN(C(=O)c3ncnc(C)c3O)[C@H]3CC[C@@H]32)c(=O)c2nn(-c3ccnc(OC)c3)nc2n1CC(=O)NC12CC(C(C)C)(C1)C2 [Compound I-14, 2-(5-ethyl-6-((1S,6S)-5-(5-hydroxy-6-methylpyrimidine-4-carbonyl)-2,5-diazabicyclo[4.2.0]octan-2-yl)-2-(2-methoxypyridin-4-yl)-7-oxo-2,7-dihydro-4H-[1,2,3]triazolo[4,5-b]pyridin-4-yl)-N-(3-isopropylbicyclo[1.1.1]pentan-1-yl)acetamide]
5 to 50	≤ 500		CCc1c(N2CCN(C(=O)c3c(OC)ncc(C)c3O)[C@H]3CC[C@@H]32)c(=O)c2nn(-c3ccnc(OC)c3)nc2n1CC(=O)NC12CC(C(C)C)(C1)C2 [Compound I-17, 2-(5-ethyl-6-((1S,6S)-5-(4-hydroxy-2-methoxy-5-methylnicotinoyl)-2,5-diazabicyclo[4.2.0]octan-2-yl)-2-(2-methoxypyridin-4-yl)-7-oxo-2,7-dihydro-4H-[1,2,3]triazolo[4,5-b]pyridin-4-yl)-N-(3-isopropylbicyclo[1.1.1]pentan-1-yl)acetamide]
5 to 50		≤ 500	CCc1c(N2CCN(C(=O)c3ncnc(C)c3O)[C@H]3CC[C@@H]32)c(=O)c2nn(C3=CCOCC3)nc2n1CC(=O)NC12CC(C(C)C)(C1)C2 [Compound I-18, 2-(2-(3,6-dihydro-2H-pyran-4-yl)-5-ethyl-6-((1S,6S)-5-(5-hydroxy-6-methylpyrimidine-4-carbonyl)-2,5-diazabicyclo[4.2.0]octan-2-yl)-7-oxo-2,7-dihydro-4H-[1,2,3]triazolo[4,5-b]pyridin-4-yl)-N-(3-isopropylbicyclo[1.1.1]pentan-1-yl)acetamide]
